From patent publication US9150543B2, “Substituted indolyl alkyl amino derivatives as inhibitors of histone deacetylase” (Janssen Pharmaceutica N. V., priority 2004, dated 2015)
≈ marks a conversion by molar mass, not a printed value.

Tests used:
[1] = test system: A2780 ovarian carcinoma cells; assay: Antiproliferative activity on A2780 cells, MTT (C.2); assay type: cell-based; conditions: Homo sapiens, 96 h, four days of incubation, read-out: Cellular activity pIC50 C.2 (converted)
Protocol: All compounds tested were dissolved in DMSO and further dilutions were made in culture medium. Final DMSO concentrations never exceeded 0.1% (v/v) in cell proliferation assays. Controls contained A2780 cells and DMSO without compound and blanks contained DMSO but no cells. MTT was dissolved at 5 mg/ml in PBS. A glycine buffer comprised of 0.1 M glycine and 0.1 M NaCl buffered to pH 10.5 with NaOH (1N) was prepared (all reagents were from Merck).
The human A2780 ovarian carcinoma cells (a kind gift from Dr. T. C. Hamilton [Fox Chase Cancer Centre, Pennsylvania, USA]) were cultured in RPMI 1640 medium supplemented with 2 mM L-glutamine, 50 μg/ml gentamicin and 10% fetal calf serum. Cells were routinely kept as monolayer cultures at 37° C. in a humidified 5% CO2 atmosphere. Cells were passaged once a week using a trypsin/EDTA solution at a split ratio of 1:40. All media and supplements were obtained from Life Technologies. Cells were free of mycoplasma contamination as determined using the Gen-Probe Mycoplasma Tissue Culture kit (supplier: BioMerieux).
Cells were seeded in NUNC™ 96-well culture plates (Supplier: Life Technologies) and allowed to adhere to the plastic overnight. Densities used for plating were 1500 cells per well in a total volume of 200 μl medium. After cell adhesion to the plates, medium was changed and drugs and/or solvents were added to a final volume of 200 μl. Following four days of incubation, medium was replaced by 200 μl fresh medium and cell density and viability was assessed using an MTT-based assay. To each well, 25 μl MTT solution was added and the cells were further incubated for 2 hours at 37° C. The medium was then carefully aspirated and the blue MTT-formazan product was solubilized by addition of 25 μl glycine buffer followed by 100 μl of DMSO. […] Within an experiment, the results for each experimental condition are the mean of 3 replicate wells. For initial screening purposes, compounds were tested at a single fixed concentration of 10^−6 M. For active compounds, the experiments were repeated to establish full concentration-response curves. For each experiment, controls (containing no drug) and a blank incubation (containing no cells or drugs) were run in parallel. The blank value was subtracted from all control and sample values. For each sample, the mean value for cell growth (in absorbance units) was expressed as a percentage of the mean value for cell growth of the control. […] Herein the effects of test compounds are expressed as pIC50 (the negative log value of the IC50-value)(see Table F-3).

[2] = Solubility/stability at different pH's, chemiluminescent nitrogen detector (C.3.b); assay type: physicochemical; conditions: aqueous buffer; pH = 2.3
Description: In a second method the solubility of a compound at different pH's can be measured with the use of a Chemiluminescent Nitrogen Detector (see example C.3.b).
The solubility of a compound, at different pH's, can also be measured with the use of a chemiluminescent nitrogen detector. (see Table F-3).

[3] = molecular target: histone deacetylase (HeLa nuclear extracts); assay: In vitro assay for inhibition of histone deacetylase with fluorescent-labelled substrate (C.1.b); assay type: biochemical; conditions: Fluor de Lys substrate
Protocol: The HDAC Fluorescent Activity Assay/Drug Discovery Kit of Biomol (cat.No: AK-500-0001) was used. The HDAC Fluorescent Activity Assay is based on the Fluor de Lys (Fluorogenic Histone deAcetylase Lysyl) substrate and developer combination. The Fluor de Lys substrate, comprises an acetylated lysine side chain. Deacetylation of the substrate sensitizes the substrate so that, in the second step, treatment with the Fluor de Lys developer produces a fluorophore.
After 30 min, 1 volume of the developer was added. […] For each experiment, controls (containing HeLa nuclear extract and buffer), a blank incubation (containing buffer but no HeLa nuclear extract) and samples (containing compound dissolved in DMSO and further diluted in buffer and HeLa nuclear extract) were run in parallel. In first instance, compounds were tested at a concentration of 10^−5M. […] All sample were tested 4 times. In each test the blank value was subtracted from both the control and the sample values. The control sample represented 100% of substrate deactylation. For each sample the fluorescence was expressed as a percentage of the mean value of the controls. […] Herein the effects of test compounds are expressed as pIC50 (the negative log value of the IC50-value) (see Table F-3).

SMILES	IC50 [1] [nM]	solubility [2] [µg/mL]	Enzymatic activity pIC50 C.1.b [3]
Cn1cc(CNCC2CCN(c3ncc(C(=O)NO)cn3)CC2)c2ccccc21 [Compound 1a]	6.31	1400 (≈ 3.55 mM)	–
O=C(NO)c1cnc(N2CCC(CNCc3c[nH]c4ccccc34)CC2)nc1 [Compound 8]	79.4	2400 (≈ 6.31 mM)	8.3
O=C(NO)c1cnc(N2CCC(CNCc3cc4ccccc4s3)CC2)nc1 [Compound 9]	79.4	–	8.3
O=C(NO)c1cnc(N2CCC(CNCc3cc4ccccc4o3)CC2)nc1 [Compound 10]	31.6	3700 (≈ 9.7 mM)	8.1
Cn1c(CNCC2CCN(c3ncc(C(=O)NO)cn3)CC2)cc2ccccc21 [Compound 11]	31.6	2800 (≈ 7.1 mM)	8.2
Cc1ccc2[nH]cc(CNCC3CCN(c4ncc(C(=O)NO)cn4)CC3)c2c1 [Compound 12]	79.4	–	8.2
O=C(NO)c1cnc(N2CCC(CNCc3c[nH]c4ccc(F)cc34)CC2)nc1 [Compound 13]	31.6	–	6.0
Cc1cccc2c(CNCC3CCN(c4ncc(C(=O)NO)cn4)CC3)c[nH]c12 [Compound 14]	39.8	1700 (≈ 4.31 mM)	8.4
O=C(NO)c1cnc(N2CCC(CNCc3c[nH]c4ccc(Br)cc34)CC2)nc1 [Compound 15]	31.6	–	8.5
COc1ccc2[nH]cc(CNCC3CCN(c4ncc(C(=O)NO)cn4)CC3)c2c1 [Compound 16]	79.4	–	8.6
O=C(NO)c1cnc(N2CCC(CNCCc3c[nH]c4ccc(Cl)cc34)CC2)nc1 [Compound 17]	158	–	7.8
Cn1cc(CNCC2CCN(c3ncc(C(=O)NO)cn3)CC2)c2cc([N+](=O)[O-])ccc21 [Compound 18]	10	–	8.3
Cc1[nH]c2ccccc2c1CCNC1CCN(c2ncc(C(=O)NO)cn2)CC1 [Compound 29]	126	–	7.9
Cn1cc(CNCC2CCN(c3ncc(C(=O)NO)cn3)CC2)c2cccc(F)c21 [Compound 30]	31.6	2100 (≈ 5.09 mM)	9.0
CCCn1cc(CCNCC2CCN(c3ncc(C(=O)NO)cn3)CC2)c2ccccc21 [Compound 31]	39.8	–	8.2
CCn1cc(CNCC2CCN(c3ncc(C(=O)NO)cn3)CC2)c2ccccc21 [Compound 34]	31.6	–	8.4
Cc1[nH]c2ccccc2c1CNCC1CCN(c2ncc(C(=O)NO)cn2)CC1 [Compound 35]	200	–	8.2
Cc1cccc2c(CNCC3CCN(c4ncc(C(=O)NO)cn4)CC3)cn(C)c12 [Compound 37]	31.6	–	8.6
Cc1cccc2c1c(CNCC1CCN(c3ncc(C(=O)NO)cn3)CC1)cn2C [Compound 38]	31.6	–	>9.0
CCC(CC)n1cc(CNCC2CCN(c3ncc(C(=O)NO)cn3)CC2)c2ccccc21 [Compound 40]	31.6	–	8.5
CCCn1cc(CNCC2CCN(c3ncc(C(=O)NO)cn3)CC2)c2ccc(Cl)cc21 [Compound 41]	1580	–	8.4
Cc1ccc2c(c1)c(CNCC1CCN(c3ncc(C(=O)NO)cn3)CC1)c(C)n2C [Compound 42]	31.6	–	8.3
O=C(NO)c1cnc(N2CCC(CNCc3cn(C4CCCC4)c4ccccc34)CC2)nc1 [Compound 46]	10	–	9.0

SMILES	IC50 [1] [nM]	solubility [2] [µg/mL]	Enzymatic activity pIC50 C.1.b [3]
O=C(NO)c1cnc(N2CCC(CNCc3cn(CC4CC4)c4ccccc34)CC2)nc1 [Compound 48]	6.31	–	>9.0
Cn1cc(CNCC2CCN(c3ncc(C(=O)NO)cn3)CC2)c2cc(F)ccc21 [Compound 51]	10	–	9.8
CCCn1cc(CNCC2CCN(c3ncc(C(=O)NO)cn3)CC2)c2cc(F)ccc21 [Compound 52]	7.94	–	10.3
CC(C)n1cc(CNCC2CCN(c3ncc(C(=O)NO)cn3)CC2)c2ccccc21 [Compound 53]	10	–	10.0
O=C(NO)c1cnc(N2CCC(CNCc3cn(Cc4ccccc4)c4ccccc34)CC2)nc1 [Compound 54]	12.6	–	10.2
Cn1cc(CNCC2CCN(c3ncc(C(=O)NO)cn3)CC2)c2ccc(Cl)cc21 [Compound 56]	25.1	–	9.2
Cn1cc(CNCC2CCN(c3ncc(C(=O)NO)cn3)CC2)c2c(Cl)cccc21 [Compound 58]	1580	–	10.0
Cn1cc(CNCC2CCN(c3ncc(C(=O)NO)cn3)CC2)c2cc3c(cc21)OCO3 [Compound 59]	20	–	9.0
CCn1cc(CNCC2CCN(c3ncc(C(=O)NO)cn3)CC2)c2ccc(OC)cc21 [Compound 61]	25.1	–	8.9
CCCn1cc(CNCC2CCN(c3ncc(C(=O)NO)cn3)CC2)c2ccccc21 [Compound 62]	10	–	9.5
O=C(NO)c1cnc(N2CCC(CNCc3cccc4cc[nH]c34)CC2)nc1 [Compound 63]	31.6	–	>9.0
O=C(NO)c1cnc(N2CCC(CNCc3cccc4[nH]ccc34)CC2)nc1 [Compound 64]	15.8	–	8.9
CCC(=O)N(CCc1cn(C)c2ccc(Cl)cc12)CC1CCN(c2ncc(C(=O)NO)cn2)CC1 [Compound 69]	200	–	7.6
CCC(=O)N(CCc1cn(C)c2ccccc12)CC1CCN(c2ncc(C(=O)NO)cn2)CC1 [Compound 70]	158	–	8.5
CCC(=O)N(CCc1cn(C)c2cc(OC)ccc12)CC1CCN(c2ncc(C(=O)NO)cn2)CC1 [Compound 71]	316	–	7.5
CC(=O)N(Cc1cn(C)c2ccccc12)CC1CCN(c2ncc(C(=O)NO)cn2)CC1 [Compound 72]	158	–	7.9
CCN(CCc1cn(C)c2cc(OC)ccc12)CC1CCN(c2ncc(C(=O)NO)cn2)CC1 [Compound 73]	79.4	–	7.9
COc1ccc2c(c1)c(CCNCC1CCN(c3ncc(C(=O)NO)cn3)CC1)cn2C [Compound 74]	79.4	–	8.2
CCCn1cc(CCNCC2CCN(c3ncc(C(=O)NO)cn3)CC2)c2ccc(OC)cc21 [Compound 75]	79.4	–	7.3
Cc1[nH]c2ccccc2c1CCNCC1CCN(c2ncc(C(=O)NO)cn2)CC1 [Compound 76]	200	–	7.8
Cn1cc(CNCC2CCN(c3ccc(C(=O)NO)cn3)CC2)c2ccccc21 [Compound 80]	79.4	–	7.8
Cn1cc(CNCC2CCN(c3ncc(C(=O)NO)cn3)CC2)c2ccc(F)cc21 [Compound 81]	31.6	–	8.9
